Laboratory results taken from publication PMC6368403, “Identification of a bilirubin receptor that may mediate a component of cholestatic itch” (eLife, 2019).
“And” between values parts separate entries of the source, which are not always exact repeats. Identical values can stand only once.

Columns and labels:
MRGPRA1 [1] = target: T1, MRGPRA1 (Mus musculus, UniProt Q91WW5); test: Ca2+ imaging and concentration-Ca2+ response (EC50) in HEK293 cells expressing MRGPRA1; assay type: cell-based; design: Ca2+ response: unit not given here; details: for Calcium response / activation of MRGPRA1-expressing cells: 50 µM bilirubin, 30 µM FMRF; for Ca2+ response (concentration-response curve): MRGPRA1, triplicate wells (Fig 2D); for Ca2+ response: bilirubin, 3 replicate columns
T1 construct: expressed in transfected cells
T1 sequence (Q91WW5 1-304): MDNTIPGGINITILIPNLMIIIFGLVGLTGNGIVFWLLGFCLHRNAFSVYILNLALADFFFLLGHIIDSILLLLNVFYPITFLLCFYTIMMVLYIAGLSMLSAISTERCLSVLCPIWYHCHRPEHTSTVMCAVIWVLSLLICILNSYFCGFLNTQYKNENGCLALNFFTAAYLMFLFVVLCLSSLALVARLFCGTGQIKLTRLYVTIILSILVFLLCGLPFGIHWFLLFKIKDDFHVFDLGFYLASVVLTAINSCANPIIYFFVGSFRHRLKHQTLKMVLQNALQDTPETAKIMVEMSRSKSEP
Procedure: All cultured cells were maintained in DMEM supplemented with 10% FBS and 1% Penicillin/Streptomycin at 37°C, 5% CO2. All data included were generated from cells tested for mycoplasma and found to be negative. Cells were imaged in calcium imaging buffer (CIB; 10 mM HEPES, 1.2 mM NaHCO3, 130 mM NaCl, 3 mM KCl, 2.5 mM CaCl2, 0.6 mM MgCl2, 20 mM glucose, and 20 mM sucrose at pH 7.4 and 290–300 mOsm). To monitor changes in intracellular [Ca^2+] ([Ca^2+]i), cells were loaded with either Fura 2-AM (HEK293 cells) or Fluo 4-AM (DRG neurons and mast cells) for 30 min in the dark at 37°C in CIB just prior to imaging. With Fura 2-AM, emission at 510 nm was monitored from excitation at both 340 nm and 380 nm. With Fluo 4-AM, emission at 520 nm was monitored from excitation at 488 nm. Cells were identified as responding if the intracellular [Ca^2+] rose by either 50% compared to baseline or 50% compared to the [Ca^2+]i change assayed during addition of 50 mM KCl (neurons only). Damaged, detached, high-baseline, and motion-activated cells were excluded from analysis.
In initial screens, HEK293 cells stably expressing the murine G-protein alpha-subunit Gα15, a unique Gα protein that non-selectively couples a large variety of GPCRs to phospholipase C ^30, were plated on poly-D-lysine-coated coverslips and transiently transfected with constructs encoding the MRGRPR of interest. 12–24 hr later, cells were loaded with the Fura 2-AM. Unless otherwise specified, compounds were perfused into the imaging chamber for approximately thirty seconds after a baseline period was established. Response was then monitored at 5 s intervals for an additional 60 s.
HEK293 cells stably expressing either MRGPRA1, MRGPRX4, and MRGRPC11 were seeded in poly-D-lysine-coated 96-well plates at 10,000 cells/well. Cells were loaded with Fura 2–AM, washed twice, and maintained in CIB. Haem metabolites were freshly dissolved in DMSO in dim light and then diluted into a buffer comprised of 20 mM Tris and 150 mM NaCl at pH 8.8. Potential changes in pH were evaluated prior to each experiment. EC50 values were determined from dose-responses performed in triplicate, repeated 2–4 times. To determine potential antagonism by QWF against bilirubin, cells were treated with varying doses of QWF for 1 min in CIB prior to application of agonist.
HEK293 stable cell lines expressing GFP-tagged MRGPRA3, MRGPRC11, MRGPRD, MRGPRX1, and MRGPRX2 were generated in previously described reports ([Liu et al., 2009]; [Liu et al., 2012]; [McNeil et al., 2015]). Briefly, plasmids containing the receptor of interest were transfected into HEK cells using Lipofectamine 3000. After 3 days, cells were then selected using 0.5 mg/mL G418. After 3 weeks, monoclonal colonies were established and each the highest expressing clones were identified. For this study, Mrgpra1 and MRGPRX4 were inserted into pEGFP-N1 and transfected into HEK293 cells. MRGPR-positive cells were selected using 0.5 mg/mL G418 for three weeks, after which GFP-positive cells were sorted by FACS and monoclonally expanded. Two lines expressing similar levels of MRGPRA1 and MRGPRX4, as measured by GFP fluorescence, were selected for study.

mice = test: Scratching bouts after subcutaneous injection into the nape of the neck / back; assay type: in vivo, mouse; details: for Scratching bouts binned according to 5 min intervals (time course of itch behavior): one column per mouse, values of a mouse sum to 1 (Fig 1B)
Procedure: All applicable behavioral tests were performed and analysed with the experimenter blind to genotype. […] On the day before the experiment, animals were placed in the test chamber for 30 min before being subjected to a series of three mock injections with 5 min break periods in between. On the day of the experiment, animals were first allowed to acclimatize to the test chamber for 10 min before injection. […] A bout of scratching was defined as a continuous scratching movement with either hindpaw directed at the area of the injection site. In the cheek injection model, a wipe was defined as a single forepaw stroking the site of the injection. Use of both forepaws on the face or cheek was considered as grooming behavior. […] For H1R block, 30 mg/kg of cetirizine HCl (pH 7.4) was given intraperitoneally thirty minutes prior to injection of bilirubin. Licking behavior was quantified in seconds and identified as the licking of the toes or footpad of the hind paw site of injection that was neither preceded nor followed by licking of any other portion of the body.

MRGPRA1 [2] = target: T1, MRGPRA1; test: [35S]GTPγS binding to MRGPRA1 membrane complexes; assay type: biochemical; details: 50 μM bilirubin
Procedure: MRGPR activation was determined by measuring binding of a radiolabelled and non-hydrolyzable form of GTP, [^35S]guanosine-5’-(γ-thio)triphosphate ([^35S]GTPγS) as previously described ([Vasavda et al., 2017]). Briefly, 10 µg of crude membrane fractions were diluted into 175 µL assay buffer (50 mM HEPES, 5 mM MgCl2, 100 mM NaCl, 1 mM EDTA, 0.1% […]) supplemented with 10 µM GDP and incubated at room temperature for 5 min. Membranes were then incubated an additional 1 min in a final volume of 199 μL assay buffer supplemented with 50 μM bilirubin. Samples were then brought to 200 μL with the addition of 10 nM [^35S]GTPγS. Samples were incubated for 2 hr at 4°C with gentle agitation. The experiment was terminated by rapid filtration onto GF/B filters and washed three times with wash buffer (50 mM Tris-HCl, 5 mM MgCl2, and 50 mM NaCl at pH 7.4). Filters were then immersed in scintillation cocktail and counted. Nonspecific binding was determined by competition with 10 μM unlabelled GTPγS. GTPγS binding assays were performed as two independent experiments, in triplicate.

Compound: C=CC1=C(C)/C(=C/c2[nH]c(Cc3[nH]c(/C=C4\NC(=O)C(C)=C4C=C)c(C)c3CCC(=O)NCCS(=O)(=O)O)c(CCC(=O)NCCS(=O)(=O)O)c2C)NC1=O [conjugated bilirubin, bilirubin ditaurate]
- Calcium response / activation of MRGPRA1-expressing cells (MRGPRA1 [1]): activated MRGPRA1-expressing cells
- Ca2+ response (concentration-response curve) (MRGPRA1 [1]; [Ligand] 7.8125e-6 M): 1.221 and 1.276 and 1.273
- Ca2+ response (concentration-response curve) (MRGPRA1 [1]; [Ligand] 1.5625e-5 M): 1.253 and 1.283 and 1.252
- Ca2+ response (concentration-response curve) (MRGPRA1 [1]; [Ligand] 3.125e-5 M): 1.222 and 1.225 and 1.221
- Ca2+ response (concentration-response curve) (MRGPRA1 [1]; [Ligand] 6.25e-5 M): 1.19 and 1.186 and 1.177
- Ca2+ response (concentration-response curve) (MRGPRA1 [1]; [Ligand] 0.000125 M): 1.212 and 1.254 and 1.214
- Ca2+ response (concentration-response curve) (MRGPRA1 [1]; [Ligand] 0.00025 M): 1.3325 and 1.3437 and 1.301
- Ca2+ response (concentration-response curve) (MRGPRA1 [1]; [Ligand] 0.0005 M): 1.4484 and 1.4326 and 1.424
- Ca2+ response (concentration-response curve) (MRGPRA1 [1]; [Ligand] 0.001 M): 1.572 and 1.554 and 1.499

Compound: C=CC1=C(C)/C(=C/c2[nH]c(Cc3[nH]c(/C=C4\NC(=O)C(C)=C4C=C)c(C)c3CCC(=O)O)c(CCC(=O)O)c2C)NC1=O [bilirubin, bilirubin IXα]
- Scratching bouts (mice; 60 μg bilirubin pre-incubated with 1% human serum albumin (+HSA), nape, WT mice (Fig 1A)): 7
- Scratching of A1 KO animals versus WT mice (mice; 60 µg injected): scratched significantly less than WT mice
- Scratching of BVR KO mice (mice; 150 µg chloroquine or 60 µg bilirubin, 30 min): scratched normally
- Scratching bouts to chloroquine plus bilirubin (mice; 1 mM chloroquine plus 500 µM bilirubin injected into back): Synergism of bilirubin with chloroquine pruritus
- Less scratching of Mrgpr-cluster KO animals than wild type mice (mice; bilirubin injection (Fig 1C)): approximately 75%
- Scratching (mice; bilirubin pre-incubated with excess human serum albumin): elicited fewer scratches
- Scratching at the site of injection (mice; pathophysiologic concentrations, s.c. into the nape): stimulated scratching in a dose-dependent manner
- Scratching bouts binned according to 5 min intervals (time course of itch behavior) (mice; time 5 min): 0 (10×) and 0.09677 and 0.08333 and 0.1304 and 0.2264 and 0.2353 and 0.07317
- Scratching bouts binned according to 5 min intervals (time course of itch behavior) (mice; time 10 min): 0.1786 and 0.5556 and 0.32 and 0.3226 and 0 (4×) and 0.1304 and 0.04 and 0.15 and 0.2642 and 0.1026 and 0.3529 and 0.2941 and 0.05128
- Scratching bouts binned according to 5 min intervals (time course of itch behavior) (mice; time 15 min): 0.25 and 0.4444 and 0.32 and 0.2258 and 0.1667 and 0.3913 and 0.66 and 0.1 and 0.1698 and 0.5116 and 0.2051 and 0.5 and 0.2941 and 0.2647 and 0.1951 and 0.2308
- Scratching bouts binned according to 5 min intervals (time course of itch behavior) (mice; time 20 min): 0.07143 and 0 (2×) and 0.16 and 0.06452 and 0.08333 and 0.3043 and 0.1 and 0.45 and 0.1509 and 0.4419 and 0.4872 and 0.1364 and 0.08824 and 0.2195 and 0.1026
- Scratching bouts binned according to 5 min intervals (time course of itch behavior) (mice; time 25 min): 0.07143 and 0 (3×) and 0.2 and 0.03226 and 0.3333 and 0.04348 and 0.06 and 0.15 and 0.04651 and 0.2727 and 0.1765 and 0.05882 and 0.3659 and 0.6154
- Scratching bouts binned according to 5 min intervals (time course of itch behavior) (mice; time 30 min): 0.4286 and 0 (5×) and 0.2581 and 0.3333 and 0.14 and 0.15 and 0.1887 and 0.2051 and 0.09091 and 0.1765 and 0.05882 and 0.1463
- Calcium response / activation of MRGPRA1-expressing cells (MRGPRA1 [1]): exhibited a calcium response
- Ca2+ response (concentration-response curve) (MRGPRA1 [1]; [Ligand] 3.90625e-6 M): 1.244 (2×) and 1.27
- Ca2+ response (concentration-response curve) (MRGPRA1 [1]; [Ligand] 7.8125e-6 M): 1.285 and 1.272 and 1.244
- Ca2+ response (concentration-response curve) (MRGPRA1 [1]; [Ligand] 1.5625e-5 M): 1.239 (2×) and 1.229
- Ca2+ response (concentration-response curve) (MRGPRA1 [1]; [Ligand] 3.125e-5 M): 1.214 and 1.216 and 1.186
- Ca2+ response (concentration-response curve) (MRGPRA1 [1]; [Ligand] 6.25e-5 M): 1.236 and 1.293 and 1.259
- Ca2+ response (concentration-response curve) (MRGPRA1 [1]; [Ligand] 0.000125 M): 1.409 and 1.368 and 1.342
- Ca2+ response (concentration-response curve) (MRGPRA1 [1]; [Ligand] 0.00025 M): 1.512 and 1.513 and 1.452
- Ca2+ response (concentration-response curve) (MRGPRA1 [1]; [Ligand] 0.0005 M): 1.582 and 1.563 and 1.522
- Ca2+ response (MRGPRA1 [1]; [Ligand] (M) -3 (log scale)): 92.1113 and 105.486 and 102.402
- Ca2+ response (MRGPRA1 [1]; [Ligand] (M) -3.30103 (log scale)): 69.422 and 70.1483 and 63.5847
- Ca2+ response (MRGPRA1 [1]; [Ligand] (M) -3.60206 (log scale)): 71.8089 and 75.8019 and 75.1545
- Ca2+ response (MRGPRA1 [1]; [Ligand] (M) -3.90309 (log scale)): 61.2591 and 54.8317 and 55.4389
- Ca2+ response (MRGPRA1 [1]; [Ligand] (M) -4.20412 (log scale)): 49.8998 and 18.4414 and 32.057
- Ca2+ response (MRGPRA1 [1]; [Ligand] (M) -4.50515 (log scale)): 6.418 and 7.051 and 1.245
- Ca2+ response (MRGPRA1 [1]; [Ligand] (M) -4.80618 (log scale)): 27.9538 and 0 (2×)
- Ca2+ response (MRGPRA1 [1]; [Ligand] (M) -5.10721 (log scale)): 34.8054 and 0 (2×)
- GTP binding to MRGPRA1 membrane complexes (MRGPRA1 [2]): increased GTP binding
- [35S]GTPγS binding (MRGPRA1 [2]; MRGPRA1 membrane complexes (Fig 2K)): 197 and 184 and 159

Compound: hemin
- Scratching behavior (mice; metabolite injected into mice (Fig 1D)): did not induce scratching
- Calcium response / activation of MRGPRA1-expressing cells (MRGPRA1 [1]): failed to activate MRGPRA1
